Patent US12558342B2, “2-[2-({12,12-dimethyl-4-oxo-6-phenyl-3,11-dioxatricyclo[8.4.0.0,2,7]tetradeca-1,5,7,9-tetraen-8-yl}oxy)acetamido]benzamide and derivatives as inhibitor of clock:bmal1 interaction for the treatment of circadian rhythm diseases and disorders” (KOC UNIVERSITESI, priority 2019, dated 2026)

Biological target: T1, CLOCK and BMAL1 interaction (Homo sapiens, UniProt O15516)
T1 construct: expressed in transfected cells; host or cells: HEK 293T
T1 sequence (O15516 1-846): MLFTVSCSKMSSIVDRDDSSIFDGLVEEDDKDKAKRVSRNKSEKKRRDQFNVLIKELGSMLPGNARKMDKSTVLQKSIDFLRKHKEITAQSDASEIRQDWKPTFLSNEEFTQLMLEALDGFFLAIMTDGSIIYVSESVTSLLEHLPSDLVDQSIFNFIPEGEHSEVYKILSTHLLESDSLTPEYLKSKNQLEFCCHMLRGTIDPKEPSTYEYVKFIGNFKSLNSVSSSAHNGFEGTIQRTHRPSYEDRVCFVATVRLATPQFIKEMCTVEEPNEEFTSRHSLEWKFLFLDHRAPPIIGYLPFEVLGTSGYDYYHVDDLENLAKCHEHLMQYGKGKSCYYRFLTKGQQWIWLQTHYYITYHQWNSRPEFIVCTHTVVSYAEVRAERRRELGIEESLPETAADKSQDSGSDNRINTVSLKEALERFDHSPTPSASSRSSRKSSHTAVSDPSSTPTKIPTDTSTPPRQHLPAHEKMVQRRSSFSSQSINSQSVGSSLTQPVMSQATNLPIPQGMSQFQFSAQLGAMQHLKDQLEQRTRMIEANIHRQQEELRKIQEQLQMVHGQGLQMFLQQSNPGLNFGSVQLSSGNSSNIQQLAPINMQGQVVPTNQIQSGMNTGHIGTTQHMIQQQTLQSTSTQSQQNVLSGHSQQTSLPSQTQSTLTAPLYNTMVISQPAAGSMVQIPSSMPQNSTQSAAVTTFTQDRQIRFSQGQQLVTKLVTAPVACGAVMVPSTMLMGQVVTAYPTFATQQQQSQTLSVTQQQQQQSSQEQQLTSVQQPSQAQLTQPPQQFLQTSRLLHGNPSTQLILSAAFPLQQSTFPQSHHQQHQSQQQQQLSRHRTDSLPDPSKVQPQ
Experiment: Co-immunoprecipitation of FLAG-CLOCK and BMAL1
Type: biochemical
Conditions: 10 μM and 40 μM
Protocol: HEK 293T cells co-expressing wild type or F80A-K220A mutant FLAG-tagged Clock together with tag-free Bmal1 were lysed with ice-cold lysis buffer (50 mM Tris-HCl PH 7.7, 150 mM NaCl, 0.1% Triton X-100, 1 mM PMSF and protease inhibitor cocktail) and centrifuged at 15000×g at 4° C. for 20 minutes. DMSO and different concentrations of CLK8 were added to the whole cell lysate. The mixtures were incubated with anti-FLAG M2 affinity gel (Sigma-Aldrich) at 4° C. overnight with continuous mixing. After three wash steps, bound proteins were eluted with Laemmli buffer heated at 95° C. for 7 minutes. CLOCK and BMAL1 were detected by monoclonal anti-FLAG M2 antibody (Sigma-Aldrich) and anti-BMAL1 (Santa Cruz Biotechnology) respectively. The amount of co-precipitated BMAL1 was normalized with the amount of precipitated CLOCK.
HEK 293T cells co-expressing wild type or F80A-K220A mutant FLAG-tagged Clock together with tag-free Bmal1 were lysed with ice-cold lysis buffer (50 mM Tris-HCl pH 7.7, 150 mM NaCl, 0.1% Triton X-100, 1 mM PMSF and protease inhibitor cocktail) and centrifuged at 15000×g at 4° C. for 20 minutes. DMSO and different concentrations of CLK8 were added to the whole cell lysate. […] CLOCK and BMAL1 were detected by monoclonal anti-FLAG M2 antibody (Sigma-Aldrich) and anti-BMAL1 (Santa Cruz Biotechnology) respectively. […]

Compound: CC1(C)CCc2c(cc(OCC(=O)Nc3ccccc3C(N)=O)c3c(-c4ccccc4)cc(=O)oc23)O1 [CLK8, 2-[2-({12,12-dimethyl-4-oxo-6-phenyl-3,11-dioxatricyclo [8.4.0.0,2,7]tetradeca-1,5,7,9-tetraen-8-yl}oxy)acetamido] benzamide]
- amount of co-precipitated BMAL1: reduced as the concentration of CLK8 increased
